Earlier results as cited in paper PMC10114980, “Triple targeting of mutant EGFR^L858R/T790M, COX-2, and 15-LOX: design and synthesis of novel quinazolinone tethered phenyl urea derivatives for anti-inflammatory and anticancer evaluation” (Journal of Enzyme Inhibition and Medicinal Chemistry, 2023).

System: EGFR
Details: Figure 2; cited from earlier work

O=C(CNc1ccc(Cl)cc1)Cn1c(-c2ccccc2)nc2ccccc2c1=O [G]
IC50: 0.081 µM

Cc1cccc(Cl)c1NC(=O)Nc1ccc(-c2nc(NCCN(C)C)c3ccccc3n2)cc1 [I]
IC50: 0.056 µM
